Assay results reported in patent publication US20030104507A1, “Method for detection of ATP” (priority 2001, published 2003).

What was measured:
[1] = tested on: endogenous ATPase of L929 cell lysate; experiment: ATPase inhibition at 22° C. and 37° C. by buffered detergent solution with 1% DTAB; type: biochemical; details: up to five hours
Description: Cell lysate was prepared as described in Example 1. The ability of 1% DTAB to inhibit endogenous ATPase (i.e., ATPase present in a sample) was measured in a complete reagent composition over time at both 22° C. (room temperature) and 37° C. Three cell lysate samples were prepared. Sample 1 contained 4.0 ml L929 cell lysate plus 4.0 ml 25 mM Hepes, pH 7.5. Sample 2 contained 4.0 ml L929 cell lysate plus 4.0 ml buffered detergent solution (40 mM Citrate (pH 6.0), 110 mM MES (pH 6.0), 450 mM KPO4 (pH 6.0), 2.0 mM EDTA, 0.2% Mazu DF-204 (PPG Industries), 2.0 mM NaF, 1.0% DTAB and 2% THESIT—final pH of the buffered detergent solution adjusted to 6.0). Sample 3 contained 4.0 ml DMEM/F12 media (no serum) containing 0.1 μM ATP plus 4.0 ml 25 mM Hepes (pH 7.5). The samples were divided in half; half was incubated at 22° C., half was incubated at 37° C. After 10 minutes of incubation in their respective water baths to allow the solution at 37° C. to reach that temperature (this point is referred to as time=10 min.), 100 μl of each sample was transferred independently to a well of a 96-well luminometer plate in quadruplicate. To each 100 μl sample was added 20 μl of a solution containing luciferin (12.5 mM)/luciferase (200 μg/ml LucPpe2m146)/MgSO4 (50 mM) solution. The resulting relative light units were measured on a Dynex luminometer using 0.5 second reads. […]

[2] = tested on: LucPpe2m146; experiment: Duration of luminescence (signal stability) and effects of media and sera, DTAB, ± pyrophosphate; type: biochemical, Photuris pennsylvanica
Description: In some embodiments, the compositions of the invention were added to intact cells to lyse them, and then ATP detected. In other embodiments, conditioned culture media were themselves assayed for ATP. However, the various components of media, such as buffers, sugars, amino acids, pH indicators, salts, etc., as well as the various factors found in serum (equine, bovine, etc.) may inhibit luciferase activity.
The luciferase-luciferin reaction was initiated by combining 100 μl of the reagent composition composition with 100 μl cell media with serum, varying final concentrations of DTAB (as indicated below in Table Q) and 1.0 μM ATP was added to each reaction plus or minus 10 μM sodium pyrophosphate in wells of a 96-well microtiter luminometer plate; each experimental condition was prepared in triplicate. At various times after initiating the reaction, rlu values were recorded using an Orion microplate luminometer (Berthold Detection Systems; Pforzheim, Germany).

**Q.** How did the “loss of ATP (inhibition of ATPase endogenous to the sample)” value ([1]; 22° C.) turn out when `CCCCCCCCCCCC[N+](C)(C)C.[Br-]` [DTAB, dodecyltrimethylammonium bromide] was run?
**A.** no loss of ATP

**Q.** And the “loss of ATP (inhibition of ATPase endogenous to the sample)” value ([1]; 37° C.)?
**A.** minimal loss

**Q.** What about the “Average Relative Light Units” value ([2]; 0.50% DTAB, DMEM + 10% FBS + ATP, 0 min) of the same compound?
**A.** 204771 relative light units

**Q.** What about the “Average Relative Light Units” value ([2]; 0.50% DTAB, DMEM + 10% FBS + ATP, 10 min) of the same compound?
**A.** 223493 relative light units

**Q.** And the “Average Relative Light Units” value ([2]; 0.50% DTAB, DMEM + 10% FBS + ATP, 30 min)?
**A.** 187757 relative light units

**Q.** What about the “Average Relative Light Units” value ([2]; 0.50% DTAB, DMEM + 10% FBS + ATP, 65 min) of the same compound?
**A.** 146766 relative light units

**Q.** And the “Average Relative Light Units” value ([2]; 0.50% DTAB, DMEM + 10% FBS + ATP, 120 min)?
**A.** 104150 relative light units

**Q.** And the “Average Relative Light Units” value ([2]; 0.50% DTAB, DMEM + 10% FBS + ATP, 180 min)?
**A.** 72609 relative light units

**Q.** And the “Average Relative Light Units” value ([2]; 0.50% DTAB, DMEM + 10% FBS + ATP, 325 min)?
**A.** 32307 relative light units

**Q.** What about the “Average Relative Light Units” value ([2]; 0.50% DTAB, F12/DME + 10% FBS + ATP, 0 min) of the same compound?
**A.** 13467 relative light units

**Q.** And the “Average Relative Light Units” value ([2]; 0.50% DTAB, F12/DME + 10% FBS + ATP, 10 min)?
**A.** 13311 relative light units

**Q.** What about the “Average Relative Light Units” value ([2]; 0.50% DTAB, F12/DME + 10% FBS + ATP, 30 min) of the same compound?
**A.** 11348 relative light units

**Q.** What about the “Average Relative Light Units” value ([2]; 0.50% DTAB, F12/DME + 10% FBS + ATP, 65 min) of the same compound?
**A.** 9953 relative light units

**Q.** What about the “Average Relative Light Units” value ([2]; 0.50% DTAB, F12/DME + 10% FBS + ATP, 120 min) of the same compound?
**A.** 8127 relative light units

**Q.** And the “Average Relative Light Units” value ([2]; 0.50% DTAB, F12/DME + 10% FBS + ATP, 180 min)?
**A.** 6538 relative light units

**Q.** And the “Average Relative Light Units” value ([2]; 0.50% DTAB, F12/DME + 10% FBS + ATP, 325 min)?
**A.** 3793 relative light units

**Q.** And the “Average Relative Light Units” value ([2]; 0.50% DTAB, F12/DME + 10% HS + ATP, 0 min)?
**A.** 88405 relative light units

**Q.** What about the “Average Relative Light Units” value ([2]; 0.50% DTAB, F12/DME + 10% HS + ATP, 10 min) of the same compound?
**A.** 82645 relative light units

**Q.** What about the “Average Relative Light Units” value ([2]; 0.50% DTAB, F12/DME + 10% HS + ATP, 30 min) of the same compound?
**A.** 70746 relative light units

**Q.** And the “Average Relative Light Units” value ([2]; 0.50% DTAB, F12/DME + 10% HS + ATP, 65 min)?
**A.** 58749 relative light units

**Q.** And the “Average Relative Light Units” value ([2]; 0.50% DTAB, F12/DME + 10% HS + ATP, 120 min)?
**A.** 44677 relative light units

**Q.** And the “Average Relative Light Units” value ([2]; 0.50% DTAB, F12/DME + 10% HS + ATP, 180 min)?
**A.** 33353 relative light units

**Q.** What about the “Average Relative Light Units” value ([2]; 0.50% DTAB, F12/DME + 10% HS + ATP, 325 min) of the same compound?
**A.** 17414 relative light units

**Q.** And the “Average Relative Light Units” value ([2]; 0.50% DTAB, RPMI + 10% FBS + ATP, 0 min)?
**A.** 44179 relative light units

**Q.** And the “Average Relative Light Units” value ([2]; 0.50% DTAB, RPMI + 10% FBS + ATP, 10 min)?
**A.** 43664 relative light units

**Q.** What about the “Average Relative Light Units” value ([2]; 0.50% DTAB, RPMI + 10% FBS + ATP, 30 min) of the same compound?
**A.** 35909 relative light units

**Q.** And the “Average Relative Light Units” value ([2]; 0.50% DTAB, RPMI + 10% FBS + ATP, 65 min)?
**A.** 26501 relative light units

**Q.** And the “Average Relative Light Units” value ([2]; 0.50% DTAB, RPMI + 10% FBS + ATP, 120 min)?
**A.** 16951 relative light units

**Q.** And the “Average Relative Light Units” value ([2]; 0.50% DTAB, RPMI + 10% FBS + ATP, 180 min)?
**A.** 10153 relative light units

**Q.** And the “Average Relative Light Units” value ([2]; 0.50% DTAB, RPMI + 10% FBS + ATP, 325 min)?
**A.** 3268 relative light units

**Q.** What about the “Average Relative Light Units” value ([2]; 0.55% DTAB, DMEM + 10% FBS + ATP, 0 min) of the same compound?
**A.** 52107 relative light units

**Q.** And the “Average Relative Light Units” value ([2]; 0.55% DTAB, DMEM + 10% FBS + ATP, 10 min)?
**A.** 59799 relative light units

**Q.** What about the “Average Relative Light Units” value ([2]; 0.55% DTAB, DMEM + 10% FBS + ATP, 30 min) of the same compound?
**A.** 51285 relative light units

**Q.** And the “Average Relative Light Units” value ([2]; 0.55% DTAB, DMEM + 10% FBS + ATP, 65 min)?
**A.** 42155 relative light units

**Q.** What about the “Average Relative Light Units” value ([2]; 0.55% DTAB, DMEM + 10% FBS + ATP, 120 min) of the same compound?
**A.** 32891 relative light units

**Q.** What about the “Average Relative Light Units” value ([2]; 0.55% DTAB, DMEM + 10% FBS + ATP, 180 min) of the same compound?
**A.** 24137 relative light units

**Q.** What about the “Average Relative Light Units” value ([2]; 0.55% DTAB, DMEM + 10% FBS + ATP, 325 min) of the same compound?
**A.** 12031 relative light units

**Q.** And the “Average Relative Light Units” value ([2]; 0.55% DTAB, F12/DME + 10% FBS + ATP, 0 min)?
**A.** 6847 relative light units

**Q.** What about the “Average Relative Light Units” value ([2]; 0.55% DTAB, F12/DME + 10% FBS + ATP, 10 min) of the same compound?
**A.** 6952 relative light units

**Q.** What about the “Average Relative Light Units” value ([2]; 0.55% DTAB, F12/DME + 10% FBS + ATP, 30 min) of the same compound?
**A.** 6013 relative light units

**Q.** What about the “Average Relative Light Units” value ([2]; 0.55% DTAB, F12/DME + 10% FBS + ATP, 65 min) of the same compound?
**A.** 5581 relative light units

**Q.** What about the “Average Relative Light Units” value ([2]; 0.55% DTAB, F12/DME + 10% FBS + ATP, 120 min) of the same compound?
**A.** 4891 relative light units

**Q.** And the “Average Relative Light Units” value ([2]; 0.55% DTAB, F12/DME + 10% FBS + ATP, 180 min)?
**A.** 4329 relative light units

**Q.** What about the “Average Relative Light Units” value ([2]; 0.55% DTAB, F12/DME + 10% FBS + ATP, 325 min) of the same compound?
**A.** 3207 relative light units

**Q.** And the “Average Relative Light Units” value ([2]; 0.55% DTAB, F12/DME + 10% HS + ATP, 0 min)?
**A.** 36615 relative light units

**Q.** And the “Average Relative Light Units” value ([2]; 0.55% DTAB, F12/DME + 10% HS + ATP, 10 min)?
**A.** 36669 relative light units

**Q.** And the “Average Relative Light Units” value ([2]; 0.55% DTAB, F12/DME + 10% HS + ATP, 30 min)?
**A.** 31348 relative light units

**Q.** What about the “Average Relative Light Units” value ([2]; 0.55% DTAB, F12/DME + 10% HS + ATP, 65 min) of the same compound?
**A.** 27979 relative light units

**Q.** And the “Average Relative Light Units” value ([2]; 0.55% DTAB, F12/DME + 10% HS + ATP, 120 min)?
**A.** 23778 relative light units

**Q.** And the “Average Relative Light Units” value ([2]; 0.55% DTAB, F12/DME + 10% HS + ATP, 180 min)?
**A.** 19955 relative light units

**Q.** What about the “Average Relative Light Units” value ([2]; 0.55% DTAB, F12/DME + 10% HS + ATP, 325 min) of the same compound?
**A.** 13539 relative light units

**Q.** What about the “Average Relative Light Units” value ([2]; 0.55% DTAB, RPMI + 10% FBS + ATP, 0 min) of the same compound?
**A.** 21388 relative light units

**Q.** And the “Average Relative Light Units” value ([2]; 0.55% DTAB, RPMI + 10% FBS + ATP, 10 min)?
**A.** 22863 relative light units

**Q.** And the “Average Relative Light Units” value ([2]; 0.55% DTAB, RPMI + 10% FBS + ATP, 30 min)?
**A.** 19631 relative light units

**Q.** And the “Average Relative Light Units” value ([2]; 0.55% DTAB, RPMI + 10% FBS + ATP, 65 min)?
**A.** 16848 relative light units

**Q.** What about the “Average Relative Light Units” value ([2]; 0.55% DTAB, RPMI + 10% FBS + ATP, 120 min) of the same compound?
**A.** 12968 relative light units

**Q.** What about the “Average Relative Light Units” value ([2]; 0.55% DTAB, RPMI + 10% FBS + ATP, 180 min) of the same compound?
**A.** 9661 relative light units

**Q.** What about the “Average Relative Light Units” value ([2]; 0.55% DTAB, RPMI + 10% FBS + ATP, 325 min) of the same compound?
**A.** 5080 relative light units
